According to patent US20200188388A1, “METHODS AND COMPOSITIONS FOR PO[…] DRUGS AND REDUCING THEIR SIDE EFFECTS” (RVX THERAPEUTICS LTD., priority 2016, published 2020):

Test system: Wistar rats
Test: Open field test, hypokinetic (sedative) or hyperkinetic action (analgesia examples)
Experimental: (§1) To evaluate the hypokinetic (sedative) or hyperkinetic action effects of tested drugs an “open field” (OF) test was applied. In the OF test, the locomotive activity of rats is determined. Animals were placed in the center of square of the illuminated field (1 meter×1 meter) for 3 minutes and the mobility time was recorded in seconds (horizontal activity). […] To quantify the locomotive activity for each dose of test drug(s) an average horizontal activity was calculated.
as §1
To evaluate the hypokinetic (sedative) effects of drugs, “open field” (OF) test was applied. In the OF test, the locomotive activity of rats is determined. Animals were placed in the center of square of the illuminated field (1 meter×1 meter) for 3 minutes and the mobility time was recorded in seconds (horizontal activity). […] To quantify the locomotive activity for each dose of test drug(s), an average horizontal activity was calculated.
Tail-Flick and Open Field Tests were Conducted as Detailed Above.
as §1

CC12CC3CC(C)(C1)CC(N)(C3)C2 [Memantine, memantine]
Sedation (I.M., doses by row as E3): 0 % of Rats | Hyperkinesia or sedation (unmarked cells, doses as E6): 0 % rats | Hyperkinesia or sedataion (unmarked cells, doses as E12): 0 % rats | Hyperkinesia (unmarked cells, doses as E48): 0 % rats | Hyperkinesia (unmarked cells, doses as E54): 0 % rats
